Tested on: adult male Wistar rats, four-vessel occlusion (4VO) transient forebrain ischemia
Assay: Neuronal death by Fluoro-Jade B staining after transient global cerebral ischemia (4VO)
Format: in vivo, rat
Details: for Neuroprotection (neuronal death, Fluoro-Jade B): vehicle = 0%
Experimental: Transient forebrain ischemia was induced in adult male Wistar rats (10–12 weeks, Charles River, L’Arbresle, France) by the standard four-vessel occlusion (4VO) model previously described. Briefly, animals were anesthetized by intraperitoneal injection of a combination of ketamine, diazepam, and atropine (62.5, 5.0, and 0.25 mg/kg, respectively); positioned in a stereotactic device; and both vertebral arteries were cauterized. The next day, anesthesia was induced with 4% isoflurane and maintained at 2–2.5% isoflurane for carotid artery dissection. After anesthesia withdrawal, the carotid arteries were occluded with an atraumatic vascular clamp to induce brain ischemia. During the entire surgical procedure, temperature was monitored at 2 min intervals and kept at 37 °C. After 15 min of ischemia, the carotid arteries were unclamped for brain reperfusion. The animals were studied after 5 days of reperfusion (R5d), or after 11 weeks of reperfusion (long-term studies), and then they were euthanized under deep anesthesia. Animals from the sham control group were handled in the same way, but without occlusion of the carotid arteries. Ischemic animals were treated with vehicle solution (ethanol/polyethylene glycol 400/saline, 1:300:200 v/v), or with nitrones QN23 or NXY-059 in vehicle solution, as a single injection through the tail vein at the onset of reperfusion. For the therapeutic window experiments, the animals were also treated at reperfusion times 1, 3, and 6 h after ischemia. The treatments were prepared by an independent researcher and administered with concealed allocation. Treatments were administered in a randomized order obtained by a computer-based randomization program. To determine the sample size, a power analysis (http://www.biomath.info/power/ttest.htm, accessed on 12 March 2020) with significance level set at 0.05 and statistical power set at 0.8 (80%) rendered a sample size of <6 subjects per group. A total of 120 ischemic animals (30 animals treated with vehicle, 60 treated with QN23, and 30 treated with NXY-059) and 9 sham control animals were included in these studies. Additionally, 13 animals were excluded from the study: 6 animals were not ischemic and 7 animals died within the 24 h after the surgical procedure (5 vehicles, 1 QN23-treated at 1.0 mg/kg, and 1 QN23-treated at 2.0 mg/kg). The Animal Care Ethics Committee of the Hospital Universitario Ramón y Cajal (Madrid, Spain) authorized all the procedures involving the animal experimentation reported here (authorization number 04/2020). These experiments were performed according to ARRIVE guidelines and the legislation on the protection of animals used for scientific purposes in Spain (RD 53/2013) and the EU (Directive 2010/63/EU). The study was designed and conducted according to the STAIR guidelines regarding physiological monitoring, sample randomization, predefined exclusion criteria, allocation concealment, blinded assessment of outcomes, dose–response definition, and a conflict-of-interest statement.
After 5 days of reperfusion (R5d), or at 11 weeks of reperfusion in long-term studies, animals were euthanized by transcardiac perfusion via the left ventricle under deep anesthesia. First, blood was washed out with 200 mL of ice-cold saline medium, followed by fixation with 4% (w/v) paraformaldehyde solution in PBS for brain preservation. Then, the brains were carefully removed from the cranial cavity and placed in 4% (w/v) paraformaldehyde solution in PBS overnight at 4 °C. The next day, the brains were sequentially placed in 10%, 20%, and 30% (w/v) sucrose in PBS until sunken, and finally embedded in Tissue-Tek O.C.T. (Sakura Finetek, Torrance, CA, USA) before freezing at −80 °C. Brain coronal sections containing the hippocampus region were obtained by cryostat sectioning at the level of interaural line +5.7 ± 0.2 mm on Real Capillary Gap microscope slides (Agilent Dako, Santa Clara, CA, USA). […]

[1] = cerebral cortex, 2.0 mg/kg i.v. at reperfusion onset, R5d

COc1ccc2nc(Cl)c(/C=[N+](\[O-])C(C)(C)C)cc2c1 [QN23, (Z)-N-tert-Butyl-1-(2-chloro-6-methoxyquinolin-3-yl)methanimine Oxide]
Therapeutic window: injection time after reperfusion onset with significantly decreased neuronal death (2.0 mg/kg i.v., CA1 and cortical regions, R5d, times tested 0, 1, 3, 6 h): up to 3 h | Neuroprotection (neuronal death, Fluoro-Jade B) (cerebral cortex, 1.5 mg/kg i.v. at reperfusion onset, R5d): 89.2% | Neuronal death compared with vehicle [1]: significantly reduced | Neuroprotection (neuronal death, Fluoro-Jade B) [1]: 89.5% | EC50 of neuroprotection, neuronal death assay (either CA1 or cortical region, i.v., from dose-response curve): 0.3 mg/kg | Neuroprotection (neuronal death, Fluoro-Jade B) (hippocampal CA1, 1.5 mg/kg i.v. at reperfusion onset, R5d): 22.6% | Neuroprotection (neuronal death, Fluoro-Jade B) (hippocampal CA1, 2.0 mg/kg i.v. at reperfusion onset, R5d): 23.8% | Neuronal death compared with vehicle (hippocampal CA1, 2.0 or 2.5 mg/kg i.v. at reperfusion onset, R5d): significantly reduced

Reference: publication PMC9220178, “Preclinical Characterization of Antioxidant Quinolyl Nitrone QN23 as a New Candidate for the Treatment of Ischemic Stroke” (Antioxidants, 2022)
